Test results published in the NIST ThermoML archive (doi:10.1016/j.jct.2018.11.011).
Where “and” joins values, the source holds several entries; their conditions need not be identical. Equal entries are not always repeated.

Test: molar heat capacity at constant pressure
Details: 101.33 kPa

O=C([O][Sb]([c]1ccccc1)([c]1ccccc1)([c]1ccccc1)[c]1ccccc1)c1ccccc1 [tetraphenylantimony benzoate]
Details | molar heat capacity at constant pressure
175 K, Crystal, Small (less than 1 g) adiabatic calorimetry | 350 J/K/mol
179.52 K, Crystal, Small (less than 1 g) adiabatic calorimetry | 354.2 J/K/mol
180 K, Crystal, Small (less than 1 g) adiabatic calorimetry | 355.4 J/K/mol
182.77 K, Crystal, Small (less than 1 g) adiabatic calorimetry | 359.3 J/K/mol
187 K, Crystal, Small (less than 1 g) adiabatic calorimetry | 368 J/K/mol
190 K, Crystal, Small (less than 1 g) adiabatic calorimetry | 372 J/K/mol
193.46 K, Crystal, Small (less than 1 g) adiabatic calorimetry | 377.4 J/K/mol
196.73 K, Crystal, Small (less than 1 g) adiabatic calorimetry | 382.6 J/K/mol
200 K, Crystal, Small (less than 1 g) adiabatic calorimetry | 387 J/K/mol and 387.6 J/K/mol
203.22 K, Crystal, Small (less than 1 g) adiabatic calorimetry | 393.1 J/K/mol
206.89 K, Crystal, Small (less than 1 g) adiabatic calorimetry | 398.7 J/K/mol
210 K, Crystal, Small (less than 1 g) adiabatic calorimetry | 402 J/K/mol
212.74 K, Crystal, Small (less than 1 g) adiabatic calorimetry | 408.9 J/K/mol
216.41 K, Crystal, Small (less than 1 g) adiabatic calorimetry | 416 J/K/mol
218 K, Crystal, Small (less than 1 g) adiabatic calorimetry | 417 J/K/mol
220 K, Crystal, Small (less than 1 g) adiabatic calorimetry | 420.9 J/K/mol
221.7 K, Crystal, Small (less than 1 g) adiabatic calorimetry | 424.2 J/K/mol
226.59 K, Crystal, Small (less than 1 g) adiabatic calorimetry | 431.9 J/K/mol
230.26 K, Crystal, Small (less than 1 g) adiabatic calorimetry | 438 J/K/mol
233.93 K, Crystal, Small (less than 1 g) adiabatic calorimetry | 444.7 J/K/mol
237.6 K, Crystal, Small (less than 1 g) adiabatic calorimetry | 451.8 J/K/mol
240 K, Crystal, Small (less than 1 g) adiabatic calorimetry | 455.1 J/K/mol
241.26 K, Crystal, Small (less than 1 g) adiabatic calorimetry | 457.5 J/K/mol
244.92 K, Crystal, Small (less than 1 g) adiabatic calorimetry | 464.4 J/K/mol
248.56 K, Crystal, Small (less than 1 g) adiabatic calorimetry | 469.4 J/K/mol
252.2 K, Crystal, Small (less than 1 g) adiabatic calorimetry | 476.9 J/K/mol
255.84 K, Crystal, Small (less than 1 g) adiabatic calorimetry | 483.2 J/K/mol
259.46 K, Crystal, Small (less than 1 g) adiabatic calorimetry | 489.4 J/K/mol
260 K, Crystal, Small (less than 1 g) adiabatic calorimetry | 491.6 J/K/mol
260.21 K, Crystal, Small (less than 1 g) adiabatic calorimetry | 492.1 J/K/mol
263.38 K, Crystal, Small (less than 1 g) adiabatic calorimetry | 496.3 J/K/mol
266.99 K, Crystal, Small (less than 1 g) adiabatic calorimetry | 503.4 J/K/mol
270.59 K, Crystal, Small (less than 1 g) adiabatic calorimetry | 511.1 J/K/mol
273.15 K, Crystal, Small (less than 1 g) adiabatic calorimetry | 514.4 J/K/mol
274.19 K, Crystal, Small (less than 1 g) adiabatic calorimetry | 516.9 J/K/mol
277.77 K, Crystal, Small (less than 1 g) adiabatic calorimetry | 523.1 J/K/mol
280 K, Crystal, Small (less than 1 g) adiabatic calorimetry | 527.1 J/K/mol
281.34 K, Crystal, Small (less than 1 g) adiabatic calorimetry | 529.8 J/K/mol
284.91 K, Crystal, Small (less than 1 g) adiabatic calorimetry | 536.8 J/K/mol
288.45 K, Crystal, Small (less than 1 g) adiabatic calorimetry | 544.3 J/K/mol
291.98 K, Crystal, Small (less than 1 g) adiabatic calorimetry | 551.8 J/K/mol
295.51 K, Crystal, Small (less than 1 g) adiabatic calorimetry | 558.6 J/K/mol
298.15 K, Crystal, Small (less than 1 g) adiabatic calorimetry | 564.4 J/K/mol
299.02 K, Crystal, Small (less than 1 g) adiabatic calorimetry | 565.4 J/K/mol
300 K, Crystal, Small (less than 1 g) adiabatic calorimetry | 568.4 J/K/mol
302.51 K, Crystal, Small (less than 1 g) adiabatic calorimetry | 572.4 J/K/mol
305.98 K, Crystal, Small (less than 1 g) adiabatic calorimetry | 579.5 J/K/mol
309.1 K, Crystal, Small (less than 1 g) adiabatic calorimetry | 585.3 J/K/mol
312.86 K, Crystal, Small (less than 1 g) adiabatic calorimetry | 594.4 J/K/mol
316.25 K, Crystal, Small (less than 1 g) adiabatic calorimetry | 601.1 J/K/mol
319.65 K, Crystal, Small (less than 1 g) adiabatic calorimetry | 610.9 J/K/mol
320 K, Crystal, Small (less than 1 g) adiabatic calorimetry | 611.4 J/K/mol
321.5 K, Crystal, DSC | 615 J/K/mol
323.03 K, Crystal, Small (less than 1 g) adiabatic calorimetry | 617.6 J/K/mol
324.5 K, Crystal, DSC | 621 J/K/mol
326.38 K, Crystal, Small (less than 1 g) adiabatic calorimetry | 625.6 J/K/mol
327.5 K, Crystal, DSC | 627 J/K/mol
329.73 K, Crystal, Small (less than 1 g) adiabatic calorimetry | 632 J/K/mol
330.5 K, Crystal, DSC | 634 J/K/mol
333.07 K, Crystal, Small (less than 1 g) adiabatic calorimetry | 638.8 J/K/mol
333.5 K, Crystal, DSC | 639 J/K/mol
336.5 K, Crystal, DSC | 645 J/K/mol
337.11 K, Crystal, Small (less than 1 g) adiabatic calorimetry | 646.4 J/K/mol
339.5 K, Crystal, DSC | 649 J/K/mol
340 K, Crystal, Small (less than 1 g) adiabatic calorimetry | 650 J/K/mol
342.5 K, Crystal, DSC | 656 J/K/mol
345.5 K, Crystal, DSC | 660 J/K/mol
348.5 K, Crystal, DSC | 666 J/K/mol
351.5 K, Crystal, DSC | 671 J/K/mol
354.5 K, Crystal, DSC | 678 J/K/mol
357.5 K, Crystal, DSC | 683 J/K/mol
360 K, Crystal, Small (less than 1 g) adiabatic calorimetry | 688 J/K/mol
360.5 K, Crystal, DSC | 689 J/K/mol
368.5 K, Crystal, DSC | 709 J/K/mol
377.2 K, Crystal, DSC | 731 J/K/mol
380 K, Crystal, Small (less than 1 g) adiabatic calorimetry | 736 J/K/mol
387.3 K, Crystal, DSC | 755 J/K/mol
397.5 K, Crystal, DSC | 780 J/K/mol
400 K, Crystal, Small (less than 1 g) adiabatic calorimetry | 788 J/K/mol
402.5 K, Crystal, DSC | 793 J/K/mol
405.5 K, Crystal, DSC | 800 J/K/mol
408.5 K, Crystal, DSC | 806 J/K/mol
411.5 K, Crystal, DSC | 830 J/K/mol
420 K, Crystal, Small (less than 1 g) adiabatic calorimetry | 800 J/K/mol
437.5 K, Crystal, Small (less than 1 g) adiabatic calorimetry | 873 J/K/mol
437.5 K, Liquid, DSC | 973 J/K/mol
440 K, Liquid, DSC | 973 J/K/mol
445.5 K, Liquid, DSC | 989 J/K/mol
447.5 K, Liquid, DSC | 981 J/K/mol
450.5 K, Liquid, DSC | 973 J/K/mol
453.5 K, Liquid, DSC | 973 J/K/mol
456.5 K, Liquid, DSC | 973 J/K/mol
459.5 K, Liquid, DSC | 973 J/K/mol
460 K, Liquid, DSC | 973 J/K/mol
462.5 K, Liquid, DSC | 973 J/K/mol
465.5 K, Liquid, DSC | 973 J/K/mol
468.5 K, Liquid, DSC | 973 J/K/mol
471.5 K, Liquid, DSC | 973 J/K/mol
474.5 K, Liquid, DSC | 973 J/K/mol
477.5 K, Liquid, DSC | 973 J/K/mol
480 K, Liquid, DSC | 973 J/K/mol
480.5 K, Liquid, DSC | 973 J/K/mol
